Structures are written as SMILES. Bounds are passed on as bounds.

IC50 and melting point data for 19 molecules are collected here from patent US20130102595A1 (Curis, Inc., priority 2011, published 2013).

One data set addresses T1, PI3Kα (p110α/p85α) (Homo sapiens, UniProt P42336).
T1 construct: GST (N); made in house; host or cells: Baculovirus-infected Sf9 cells
As to the kind of experiment: PI3Kα ADP-Glo assay. The data set is classed as biochemical. The note with it: 20 μM PIP2, 10 μM ATP, 30 minutes. A digest of the protocol:
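Luminescent ADP-Glo detection, after depletion of residual ATP, quantified ADP made by PI3Kα phosphorylating 20 μM PIP2 at 10 μM ATP. The kinase step ran 30 min at room temperature in HEPES pH 7.4 with MgCl2, DTT and orthovanadate, using baculovirus/Sf9-expressed full-length p110α/p85α complex.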

In data set [1] the test system is HDACs (HeLa cell nuclear extracts). Nature of the data set: HDAC enzymatic activity, Biomol Color de Lys system. Type of data set: biochemical. Particulars: 1 hour, 25° C. A digest of the protocol:
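IC50 from sigmoidal fit of developer-terminated fluorescence (ex 350-380/em 440-460 nm). Reaction: 1 h at room temperature (25 °C), HeLa nuclear extract as HDAC source, artificial substrate, buffer of 50 mM Tris/Cl pH 8.0 with 137 mM NaCl, 2.7 mM KCl and 1 mM MgCl2.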

Data set [2] concerns the target T2, mTor serine/threonine protein kinase (Homo sapiens, UniProt P42345).
T2 construct: FLAG; made in house; host or cells: Baculovirus expression system in Sf21 cells
Nature of the data set: mTor kinase radioisotope assay. Particulars: 70 uM ATP, 40 minutes; read-out: m-TOR IC50. Type of data set: biochemical. As to the method:
(F) an In Vitro Assay which-Determines the Ability of a Test Compound to Inhibit mTor Serine/Threonine Protein Kinase.
The ability of compounds to inhibit mTor activity was assayed using standard radioisotope assay for kinase. Briefly, FLAG-tagged, recombinant full-length human mTor (GenBank accession No. NM_004958) was expressed using baculovirus expression system in Sf21 cells and purified using antibody affinity column. Purified enzyme was incubated with c-terminal fragment of p70S6K as it's substrate in the presence of ATP. p33 ATP tracers were included in the assay to monitor the enzyme activity. Final assay condition was with 50 mM HEPES pH 7.5, 1 mM EGTA, 0.01% Tween 20, 2 mg/ml substrate, 3 mM Manganese Chloride and 70 uM of ATP and was carried out at room temperature for 40 minutes. The reaction was then stopped by the addition of 3% phosphoric acid solution. 10 ul of the reaction was spotted onto a P30 filtermat and washed three times for 5 minutes in 75 mM phosphoric acid and once in methanol prior to drying and scintillation counting. Different concentrations of compounds were added to reaction to assess the activity of compounds to inhibit mTor kinase. IC50 was calculated using Prism software with sigmoidal dose-response curve fitting.

T1 sequence (P42336 whole entry): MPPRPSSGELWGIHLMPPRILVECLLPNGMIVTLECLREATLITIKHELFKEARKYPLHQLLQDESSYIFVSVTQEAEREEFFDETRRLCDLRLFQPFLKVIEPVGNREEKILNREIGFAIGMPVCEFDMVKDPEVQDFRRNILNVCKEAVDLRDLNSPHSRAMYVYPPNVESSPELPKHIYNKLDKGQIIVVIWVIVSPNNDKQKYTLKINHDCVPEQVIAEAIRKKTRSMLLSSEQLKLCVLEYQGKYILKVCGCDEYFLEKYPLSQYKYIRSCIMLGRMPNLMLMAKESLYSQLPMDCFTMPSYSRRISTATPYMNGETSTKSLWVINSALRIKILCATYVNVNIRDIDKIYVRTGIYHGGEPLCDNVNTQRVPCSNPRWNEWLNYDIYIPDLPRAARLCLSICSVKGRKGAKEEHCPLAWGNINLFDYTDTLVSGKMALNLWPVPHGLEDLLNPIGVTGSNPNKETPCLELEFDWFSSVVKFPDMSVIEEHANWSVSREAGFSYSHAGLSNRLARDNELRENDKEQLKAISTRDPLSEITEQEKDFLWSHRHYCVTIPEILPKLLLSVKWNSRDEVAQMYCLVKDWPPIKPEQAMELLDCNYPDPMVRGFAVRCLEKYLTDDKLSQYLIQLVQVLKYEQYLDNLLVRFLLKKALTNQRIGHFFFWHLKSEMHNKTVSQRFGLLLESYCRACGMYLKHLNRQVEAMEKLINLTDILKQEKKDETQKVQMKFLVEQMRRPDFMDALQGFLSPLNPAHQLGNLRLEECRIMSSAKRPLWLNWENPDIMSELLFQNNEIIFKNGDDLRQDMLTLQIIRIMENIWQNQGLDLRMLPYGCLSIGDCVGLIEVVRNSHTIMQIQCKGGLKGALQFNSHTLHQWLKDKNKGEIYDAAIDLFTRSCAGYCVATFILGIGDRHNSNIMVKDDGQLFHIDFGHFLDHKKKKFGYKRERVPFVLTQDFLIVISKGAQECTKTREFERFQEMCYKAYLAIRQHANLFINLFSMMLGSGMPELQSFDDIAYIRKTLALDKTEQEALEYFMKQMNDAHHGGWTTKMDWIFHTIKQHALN
T1 sequence (P27986 whole entry partner): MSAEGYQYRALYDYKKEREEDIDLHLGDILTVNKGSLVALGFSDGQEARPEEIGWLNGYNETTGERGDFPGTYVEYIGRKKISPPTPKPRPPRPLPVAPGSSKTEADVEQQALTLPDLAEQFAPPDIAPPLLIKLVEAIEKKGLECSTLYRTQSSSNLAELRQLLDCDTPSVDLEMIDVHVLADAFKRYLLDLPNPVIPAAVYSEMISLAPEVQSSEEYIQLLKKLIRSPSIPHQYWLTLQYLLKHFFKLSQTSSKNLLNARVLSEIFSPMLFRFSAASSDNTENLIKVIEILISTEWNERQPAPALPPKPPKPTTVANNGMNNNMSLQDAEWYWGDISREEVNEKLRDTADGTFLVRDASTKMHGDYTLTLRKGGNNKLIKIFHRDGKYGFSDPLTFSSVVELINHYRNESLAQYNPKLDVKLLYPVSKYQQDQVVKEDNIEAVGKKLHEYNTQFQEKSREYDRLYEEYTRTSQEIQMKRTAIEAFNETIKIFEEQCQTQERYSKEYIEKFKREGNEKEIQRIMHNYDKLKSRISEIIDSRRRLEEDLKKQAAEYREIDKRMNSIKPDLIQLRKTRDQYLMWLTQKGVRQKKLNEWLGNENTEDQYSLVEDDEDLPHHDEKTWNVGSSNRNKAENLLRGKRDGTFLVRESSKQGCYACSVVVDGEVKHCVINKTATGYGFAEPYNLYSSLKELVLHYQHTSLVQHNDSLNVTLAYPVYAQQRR

In turn, `CN(C)c1ncc(-c2nc(N3CCOCC3)c3sc(CN(C)c4ncc(C(=O)NO)cn4)cc3n2)cn1` [Compound 117, 2-(((2-(2-(dimethylamino)pyrimidin-5-yl)-4-morpholinothieno[3,2-d]pyrimidin-6-yl)methyl)(methyl)amino)-N-hydroxypyrimidine-5-carboxamide] returned a melting point of 200 to 206 °C. At PI3Kα (p110α/p85α), the IC50 is below 0.1 µM. The IC50 in data set [1] is below 0.1 µM. The IC50 in data set [2] lay in the range of 1 to 10 µM.

Take `CN(CCCCC(=O)NO)Cc1cc2nc(-c3cccc4[nH]ncc34)nc(N3CCOCC3)c2s1` [Compound 102, 5-(((2-(1H-indazol-4-yl)-4-morpholinothieno[3,2-d]pyrimidin-6-yl)methyl)(methyl)amino)-N-hydroxypentanamide]: the melting point is 120 to 122 °C. The molecule further yielded an IC50 on PI3Kα (p110α/p85α) of 0.1 to 1 µM. In addition, the IC50 in data set [1] was 0.1 to 1 µM. For the same molecule, the IC50 in data set [2] fell in the range of 0.1 to 1 µM.

As to `CN(Cc1cc2nc(-c3cc(F)cc4[nH]ncc34)nc(N3CCOCC3)c2s1)c1ncc(C(=O)NO)cn1` [Compound 69, 2-(((2-(6-fluoro-1H-indazol-4-yl)-4-morpholinothieno[3,2-d]pyrimidin-6-yl)methyl)(methyl)amino)-N-hydroxypyrimidine-5-carboxamide], the melting point was in the range of 215 to 217 °C. The same molecule came in with an IC50 on PI3Kα (p110α/p85α) below 0.1 µM. The IC50 in data set [1] was below 0.1 µM. The concentration for half-maximal inhibition (IC50) in data set [2] lay in the range of 1 to 10 µM.

Molecule `O=C(CCCCCNCc1cc2nc(-c3cccc4[nH]ncc34)nc(N3CCOCC3)c2s1)NO` [Compound 43, 6-((2-(1H-indazol-4-yl)-4-morpholinothieno[3,2-d]pyrimidin-6-yl)methylamino)-N-hydroxyhexanamide] yielded a melting point of 128 to 130 °C. This molecule displayed an IC50 on PI3Kα (p110α/p85α) of 1 to 10 µM. Moreover, the IC50 in data set [1] is below 0.1 µM. Moreover, the IC50 in data set [2] is 1 to 10 µM.

`CN(Cc1cc2nc(-c3ccc(OCCO)nc3)nc(N3CCOCC3)c2s1)c1ncc(C(=O)NO)cn1` [Compound 256, N-Hydroxy-2-(((2-(6-(2-hydroxyethoxy)pyridin-3-yl)-4-morpholinothieno[3,2-d]pyrimidin-6-yl)methyl)(methyl)amino)pyrimidine-5-carboxamide] had a melting point of 143 to 145 °C. On PI3Kα (p110α/p85α), this molecule gave an IC50 below 0.1 µM. For the same molecule, the IC50 in data set [1] is below 0.1 µM. In addition, the IC50 in data set [2] is above 10 µM.

Consider `C[C@@H](O)c1cccc(-c2nc(N3CCOCC3)c3sc(CN(C)c4ncc(C(=O)NO)cn4)cc3n2)c1` [Compound 297, (R)—N-Hydroxy-2-(((2-(3-(1-hydroxyethyl)phenyl)-4-morpholinothieno[3,2-d]pyrimidin-6-yl)methyl)(methyl)amino)pyrimidine-5-carboxamide], for which the melting point lay within 169 to 173 °C. In addition, on PI3Kα (p110α/p85α), the concentration for half-maximal inhibition (IC50) fell in the range of 0.1 to 1 µM. The same molecule returned a 50% inhibitory concentration (IC50) in data set [1] below 0.1 µM. Also, the concentration for half-maximal inhibition (IC50) in data set [2] was 0.1 to 1 µM.

`CN(Cc1cc2nc(-c3ccc4[nH]c(C(F)(F)F)nc4c3)nc(N3CCOCC3)c2s1)c1ncc(C(=O)NO)cn1` [Compound 318] returned a melting point above 300 °C. On PI3Kα (p110α/p85α), this molecule came in with an IC50 below 0.1 µM. Also, in data set [1], the IC50 was below 0.1 µM. In addition, the IC50 in data set [2] fell in the range of 0.1 to 1 µM.

The molecule `CN(CCCC(=O)NO)Cc1cc2nc(-c3cccc4[nH]ncc34)nc(N3CCOCC3)c2s1` [Compound 101, 4-(((2-(1H-indazol-4-yl)-4-morpholinothieno[3,2-d]pyrimidin-6-yl)methyl)(methyl)amino)-N-hydroxybutanamide] had a melting point of 115 to 118 °C. On PI3Kα (p110α/p85α), this molecule registered an IC50 of 0.1 to 1 µM. For the same molecule, the IC50 in data set [1] is above 10 µM. The IC50 in data set [2] is 0.1 to 1 µM.

The molecule `CCc1ncc(-c2nc(N3CCOCC3)c3sc(CN(C)c4ncc(C(=O)NO)cn4)cc3n2)cn1` [Compound 121, 2-(((2-(2-ethylpyrimidin-5-yl)-4-morpholinothieno[3,2-d]pyrimidin-6-yl)methyl)(methyl)amino)-N-hydroxypyrimidine-5-carboxamide] registered a melting point of 153 to 156 °C. Besides, at PI3Kα (p110α/p85α), the IC50 was below 0.1 µM. In data set [1], this molecule returned an IC50 below 0.1 µM. Moreover, the 50% inhibitory concentration (IC50) in data set [2] was in the range of 1 to 10 µM.

`CN(Cc1cc2nc(-c3cccc4[nH]c(=O)[nH]c34)nc(N3CCOCC3)c2s1)c1ncc(C(=O)NO)cn1` [Compound 314]: the IC50 against PI3Kα (p110α/p85α) is 0.1 to 1 µM; in data set [1], below 0.1 µM; in data set [2], above 10 µM.

Turning to `Nc1ccc(-c2nc(N3CCOCC3)c3sc(CN(CCO)c4ncc(C(=O)NO)cn4)cc3n2)cc1` [Compound 274], the results for the IC50 (at PI3Kα (p110α/p85α); in data set [1]; in data set [2]) were below 0.1 µM, below 0.1 µM and 0.1 to 1 µM, respectively.

Molecule `CN(Cc1cc2nc(-c3cnn(C)c3)nc(N3CCOCC3)c2s1)c1ncc(C(=O)NO)cn1` [Compound 246, N-Hydroxy-2-(methyl((2-(1-methyl-1H-pyrazol-4-yl)-4-morpholinothieno[3,2-d]pyrimidin-6-yl)methyl)amino)pyrimidine-5-carboxamide] came in with a melting point of 164 to 169 °C. Moreover, on PI3Kα (p110α/p85α), the IC50 was in the range of 0.1 to 1 µM. In data set [1], this molecule had a concentration for half-maximal inhibition (IC50) below 0.1 µM. Also, in data set [2], the IC50 is above 10 µM.

As for `O=C(NO)c1cnc(N2CCC(CNCc3cc4nc(-c5cccc6[nH]ncc56)nc(N5CCOCC5)c4s3)CC2)nc1` [Compound 15, 2-(4-(((2-(1H-indazol-4-yl)-4-morpholinothieno[3,2-d]pyrimidin-6-yl)methylamino)methyl)piperidin-1-yl)-N-hydroxypyrimidine-5-carboxamide], the melting point lay in the range of 170 to 172 °C. The molecule further returned an IC50 at PI3Kα (p110α/p85α) of 0.1 to 1 µM. The IC50 in data set [1] was below 0.1 µM. For the same molecule, the IC50 in data set [2] was above 10 µM.

As for `COC(=O)CN(Cc1cc2nc(-c3cccc4[nH]ncc34)nc(N3CCOCC3)c2s1)c1ncc(C(=O)NO)cn1` [Compound 89], the IC50 against PI3Kα (p110α/p85α) was below 0.1 µM; in data set [1], below 0.1 µM; in data set [2], 1 to 10 µM.

In turn, `CC(=O)NCc1ccc(-c2nc(N3CCOCC3)c3sc(CN(C)c4ncc(C(=O)NO)cn4)cc3n2)cc1` [Compound 136, 2-(((2-(4-(acetamidomethyl)phenyl)-4-morpholinothieno[3,2-d]pyrimidin-6-yl)methyl)(methyl)amino)-N-hydroxypyrimidine-5-carboxamide] had a melting point of 178 to 180 °C. The molecule further gave an IC50 at PI3Kα (p110α/p85α) above 10 µM. In addition, the IC50 in data set [2] is above 10 µM.

Take `CN(Cc1cc2nc(-c3cccc4c3CC(=O)N4)nc(N3CCOCC3)c2s1)c1ncc(C(=O)NO)cn1` [Compound 178]: the results for the IC50 (on PI3Kα (p110α/p85α); in data set [1]; in data set [2]) were above 10 µM, below 0.1 µM and above 10 µM, respectively.

`CC(=O)OCCN(Cc1cc2nc(-c3cccc4[nH]ncc34)nc(N3CCOCC3)c2s1)c1ncc(C(=O)NO)cn1` [Compound 87]: the IC50 against PI3Kα (p110α/p85α) was below 0.1 µM; in data set [1], below 0.1 µM; in data set [2], 1 to 10 µM.

`CN(Cc1cc2nc(-c3ccc([N+](=O)[O-])c(O)c3)nc(N3CCOCC3)c2s1)c1ncc(C(=O)NO)cn1` [Compound 293, N-Hydroxy-2-(((2-(3-hydroxy-4-nitrophenyl)-4-morpholinothieno[3,2-d]pyrimidin-6-yl)methyl)(methyl)amino)pyrimidine-5-carboxamide]: the IC50 against PI3Kα (p110α/p85α) is below 0.1 µM; in data set [1] it was below 0.1 µM; in data set [2], above 10 µM.

For the molecule `N#CCCN(Cc1cc2nc(-c3cccc4[nH]ncc34)nc(N3CCOCC3)c2s1)c1ncc(C(=O)NO)cn1` [Compound 99], the IC50 is below 0.1 µM at PI3Kα (p110α/p85α), below 0.1 µM in data set [1] and 0.1 to 1 µM in data set [2].
